The values below come from publication PMC9474448, “Assembly of transmembrane pores from mirror-image peptides” (Nature Communications, 2022).

Holding throughout (assay type): binding
The subject of one assay is DcWza. In words: Single-channel analyte blocking of DcWza pore. The note with it: 100 μM, trans; +100 mV; 1 M KCl, 10 mM HEPES, pH 7.4. The method, then: (§1) Electrical recordings were carried out by using bilayers of 1,2-diphytanoyl-sn-glycero-3-phosphocholine (DPhPC, Avanti Polar Lipids) formed across ~100 µm in diameter polytetrafluoroethylene (Teflon) film of 25 µm thick (Goodfellow, Cambridge)[59]. The Teflon film is sandwiched between two sides of the Delrin bilayer chamber, called cis and trans compartments (500 µL each). Solvent-free bilayers were formed by pre-treating the aperture with hexadecane in n-pentane (1 μL, 5 mg mL^−1) on each side of the bilayer chamber. Then the bilayer chamber was filled with the electrolyte solution (1 M KCl, 10 mM HEPES, pH 7.4) and DPhPC in n-pentane (2 μL, 5 mg mL^−1) was added to both sides of the chamber. After 5 min, a bilayer was formed when the electrolyte was raised, bringing the two lipid surface monolayers together at the aperture. pPorA pores were formed by adding self-assembled preoligomers extracted from the SDS PAGE gel to the cis side of the chamber. The cWza pores were formed by adding peptide solution in 0.1% DDM (1 µL, 100 µg mL^−1) to the cis side. The cis chamber was connected to the grounded electrode and the trans chamber was attached to the working electrode. […] The reverse potential was determined to calculate the permeability ratio of K^+ and Cl^- ions across the pore (Supplementary text). […]

A further assay concerns DpPorA. In words: Single-molecule sensing: analyte blocking of single DpPorA pore. The note with it: 1 M KCl; for ion current blockage of single DpPorA (in words): 10 mM HEPES pH 7.4, am8γCD 10 μM trans at positive voltages, γCD, s8γCD 100 μM cis, D9, R4 10 μM cis. The method, then: Electrical recordings were carried out by using bilayers of 1,2-diphytanoyl-sn-glycero-3-phosphocholine (DPhPC, Avanti Polar Lipids) formed across ~100 µm in diameter polytetrafluoroethylene (Teflon) film of 25 µm thick (Goodfellow, Cambridge)[59]. The Teflon film is sandwiched between two sides of the Delrin bilayer chamber, called cis and trans compartments (500 µL each). Solvent-free bilayers were formed by pre-treating the aperture with hexadecane in n-pentane (1 μL, 5 mg mL^−1) on each side of the bilayer chamber. Then the bilayer chamber was filled with the electrolyte solution (1 M KCl, 10 mM HEPES, pH 7.4) and DPhPC in n-pentane (2 μL, 5 mg mL^−1) was added to both sides of the chamber. After 5 min, a bilayer was formed when the electrolyte was raised, bringing the two lipid surface monolayers together at the aperture. pPorA pores were formed by adding self-assembled preoligomers extracted from the SDS PAGE gel to the cis side of the chamber. The cWza pores were formed by adding peptide solution in 0.1% DDM (1 µL, 100 µg mL^−1) to the cis side. The cis chamber was connected to the grounded electrode and the trans chamber was attached to the working electrode. A potential difference was applied through a pair of Ag/AgCl electrodes, set in 3% agarose containing 3.0 M KCl. We investigated the ion selectivity of pores using the KCl salt gradient applied across the bilayer chambers (1 M cis /0.15 M trans). The reverse potential was determined to calculate the permeability ratio of K^+ and Cl^- ions across the pore (Supplementary text). The current was amplified using an Axopatch 200B amplifier, digitized with a Digidata 1550B digitizer (pCLAMP 11.0, Molecular Devices, CA) with a low-pass filter frequency of 10 kHz and a sampling frequency of 50 kHz or a low-pass filter frequency of 2 kHz and a sampling frequency of 10 kHz. Single-channel data analysis was conducted using Clampfit 11.0 (Molecular devices, CA). Histogram plotting were performed in OriginPro 2022 (OriginLab).

In another assay the test system is LpPorA. In words: Single-channel analyte blocking of LpPorA pore. Particulars: +50 mV; am8γCD 1 µM trans; 1 M KCl; n = 3. The protocol:
as §1

Structures are written as SMILES.

Take `NCC1OC2OC3C(CN)OC(OC4C(CN)OC(OC5C(CN)OC(OC6C(CN)OC(OC7C(CN)OC(OC8C(CN)OC(OC9C(CN)OC(OC1C(O)C2O)C(O)C9O)C(O)C8O)C(O)C7O)C(O)C6O)C(O)C5O)C(O)C4O)C(O)C3O` (centres unmarked) [am8γCD]: in the assay with DcWza, the “ion current blockage of DcWza in the open state (in words)” value is “no blockages were observed”. Besides, the “pore block (closure) of DpPorA (S)” value with DpPorA (10 μM analyte, cis, negative voltages) amounted to 100%. In addition, the “ion current blockage of single DpPorA (in words)” value with DpPorA was “complete pore closure”. Besides, in the assay with LpPorA, the “mean blockage time (τoff)” value came out at 0.22 ± 0.03 ms.
Turning to `OC[C@H]1O[C@@H]2O[C@H]3[C@H](O)[C@@H](O)[C@@H](O[C@H]4[C@H](O)[C@@H](O)[C@@H](O[C@H]5[C@H](O)[C@@H](O)[C@@H](O[C@H]6[C@H](O)[C@@H](O)[C@@H](O[C@H]7[C@H](O)[C@@H](O)[C@@H](O[C@H]8[C@H](O)[C@@H](O)[C@@H](O[C@H]9[C@H](O)[C@@H](O)[C@@H](O[C@H]1[C@H](O)[C@H]2O)O[C@@H]9CO)O[C@@H]8CO)O[C@@H]7CO)O[C@@H]6CO)O[C@@H]5CO)O[C@@H]4CO)O[C@@H]3CO` [γCD], the “ion current blockage of single DpPorA (in words)” value in the assay on DpPorA is reported as “did not produce any current blockages”.
